Source: a melting point compilation (Tetko et al.; mined from patent text by program, amines drawn as free bases though some values may be those of a salt)

SMILES | melting point
N#Cc1ccc(-c2cnc(Cl)o2)cc1 | 144 °C
O=C(O)CC1(CS)CC1 | 42 to 45 °C
CCOC(=O)c1cn(CCNC(=O)OC(C)(C)C)c(Br)c1-c1cccc(F)c1 | 108 to 110 °C
Cc1ccc(OCCOc2ccc(C)cc2)cc1 | 134 °C
CC1(C)CC(=C(c2ccc(O)cc2)c2ccc(OCC(=O)O)cc2)CC(C)(C)C1 | 163 to 164 °C
CC(=O)Nc1ccc2ncnc(Nc3cccc(Cl)c3)c2c1 | 260 to 262 °C
COCc1ccc(-c2ncccc2S(=O)(=O)Nc2ncc(C)nc2OC)cc1 | 129 to 130 °C
Sc1nc(CCCc2cc(Cl)cc(Cl)c2)c[nH]1 | 98 to 99 °C
O=C(NC1CCCCC1)c1c(O)c2cc(F)ccc2n(Cc2ccccc2)c1=O | 130 to 134 °C
Cc1nnc(OC(=O)NC(C)(C)C)n1-c1ccc(Cl)cn1 | 132 to 134 °C
COc1c(F)c(NCc2ccccc2)c(F)c(OC)c1C(=O)O | 85 to 86 °C
C=C(CNNC(=O)OC(C)(C)C)c1ccccc1 | 153 to 154 °C
CCN1CCN(Cc2ccc(C(=O)Nc3ccc(C)c(Nc4nccc(-c5cccnc5)n4)c3)cc2)CC1 | 210 °C
O=C(Nc1cc(F)ccc1N1CCCCC1)c1ccncc1 | 115 to 116 °C
CC(=O)NC[C@H]1CN(c2ccc(C(=O)c3cnc4ncccn34)cc2)C(=O)O1 | 257 to 260 °C
OCc1cccc(Oc2nn(Cc3ccccc3)c3ccccc23)n1 | 156 to 158 °C
CC(=S)NCC1CN(c2ccc(S(=O)CCF)c(F)c2)C(=O)O1 (stereo not given) | 161 °C
CCOC(=O)C1C(=C=S)NCC1CCc1ccc(C(=O)O)cc1 (stereo not given) | 145 to 148 °C
N#Cc1cccc(C(F)(F)F)c1O | 134 °C
Cc1cc(=O)[nH]c2ccc(OCCCN3CCC(NC(=O)c4ccccc4)CC3)cc12 | 243 to 245 °C

SMILES | melting point
OC1CC2c3ccccc3CCN2C2CCCCC12 (stereo not given) | 140 to 142 °C
NCCCCCC(=O)Nc1cccc(C(=O)NCCC(=O)O)c1 | 221 °C
O=C(O)COc1ccc2c(c1)Cc1sc(SCCC(c3ccccc3)c3ccccc3)nc1-2 | 135 to 137 °C
COCCCn1nnnc1-c1cc(-c2cccc(C(F)(F)F)c2)c(O)cc1O | 144 to 182 °C
COc1ccc(CNC(=O)c2ccc3n2Cc2ccccc2N(C(=O)c2ccc(-c4ccccc4C)c(C)c2)C3)cc1 | 127 to 128 °C
CC(=O)Nc1ccc2c(c1)COCO2 | 133 to 134 °C
O=C1c2ccccc2C(=O)N1CC(Cc1c[nH]c([N+](=O)[O-])n1)ON1C(=O)c2ccccc2C1=O (stereo not given) | 119 to 121 °C
CCOC(=O)/C=C/c1ccc(C=Cc2nc(-c3ccco3)oc2C)cc1 | 123 to 124 °C
CC(=O)OCC1CCn2c(c(C3=C(c4cccc(C(F)(F)F)c4)C(=O)OC3=O)c3ccccc32)C1 (stereo not given) | 176 to 177 °C
O=[N+]([O-])c1ccc(-c2ncnn2-c2ccc(Br)cc2)cc1 | 142 to 144 °C
Cc1ccc(S(=O)(=O)N2CCN(c3ccc(O)cc3)CC2)cc1 | 193 °C
Cn1cc(-c2cccc(N3Cc4cc(C(C)(C)C)ccc4C3=O)c2CO)cc(Nc2ccc(N3CCNCC3=O)cn2)c1=O | 218 to 220 °C
CC(=O)OCC1OC(n2c(Cl)nc3ccc(Cl)cc32)C(OC(C)=O)C1OC(C)=O (stereo not given) | 155 to 157 °C
CCSc1nnc(S)n1N | 172 °C
O=C(O)COc1c(-c2cccc(Cl)c2)cc(C(=O)NCCCCc2ccccc2)cc1-c1cccc(C(F)(F)F)c1 | 187 to 190 °C
CN1C(=O)N(Cc2ccccc2)CC1(CCO)c1ccc(Cl)c(Cl)c1 (stereo not given) | 118 °C
CCCCOC(=O)C1CC(n2cnc3c(N)ncnc32)C(O)C1O (stereo not given) | 173 to 175 °C
NC(=O)c1cc(O)c(O)c([N+](=O)[O-])c1 | 235 to 236 °C
COc1ccccc1N1CCN(CCn2c(=O)c3sccc3n(C)c2=O)CC1 | 149 to 151 °C
O=C(O)CCC#Cc1ccccc1Br | 87 to 91 °C
